Several values for one entry are separate records, joined by “and”; a condition that tells them apart may be missing. Equal values may be shown once. Inconclusive results and toxic doses are left out. The calls were made as follows: active = survival T/C of 150% or more; inactive = T/C below 125% in these data. Square brackets hold non-standard residues; d marks the D form. Peptide text beside a SMILES is read from it. * marks the point of attachment. ξ: configuration not given here. Cbz = O=C(OCc1ccccc1)*; ξT = CC(O)C(N)C(=O)O
Tested on: P388 leukemia ip, CD2F1 mice, survival T/C
Test: NCI In Vivo Anticancer Drug Screen. Data for tumor model P388 Leukemia (intraperitoneal) in CD2F1 (CDF1) mice
Conditions: endpoint: median survival time, higher = longer survival
Method in brief: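 Mice carrying the transplanted tumor received test compound or vehicle. Survival was recorded in each group, and the value is the treated-group measurement divided by that of the vehicle-treated control group.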

[1] = dose: 60.0 mg/kg/injection, schedule: Q01DX005 (ip), vehicle: saline with Tween-80
[2] = dose: 120.0 mg/kg/injection, schedule: Q01DX005 (ip), vehicle: saline with Tween-80
[3] = dose: 240.0 mg/kg/injection, schedule: Q01DX005 (ip), vehicle: saline with Tween-80
[4] = dose: 50.0 mg/kg/injection, schedule: Q01DX005 (ip), vehicle: Klucel (hydroxypropylcellulose) (HPC)
[5] = dose: 100.0 mg/kg/injection, schedule: Q01DX005 (ip), vehicle: Klucel (hydroxypropylcellulose) (HPC)
[6] = dose: 200.0 mg/kg/injection, schedule: Q01DX005 (ip), vehicle: Klucel (hydroxypropylcellulose) (HPC)
[7] = dose: 100.0 mg/kg/injection, schedule: Q01DX001 (ip), vehicle: Klucel (hydroxypropylcellulose) (HPC)
[8] = dose: 50.0 mg/kg/injection, schedule: Q01DX005 (ip), vehicle: saline with Tween-80
[9] = dose: 100.0 mg/kg/injection, schedule: Q01DX005 (ip), vehicle: saline with Tween-80
[10] = dose: 100.0 mg/kg/injection, schedule: Q04DX002 (ip), vehicle: Klucel (hydroxypropylcellulose) (HPC)
[11] = dose: 200.0 mg/kg/injection, schedule: Q04DX002 (ip), vehicle: Klucel (hydroxypropylcellulose) (HPC)

Measured: T/C

Cc1cc2ccccc2nc1Cl
inactive: dose: 60.0 mg/kg/injection, schedule: Q01DX005 (ip), vehicle: saline + Tween-80 + alcohol 100 % of control | dose: 120.0 mg/kg/injection, schedule: Q01DX005 (ip), vehicle: saline + Tween-80 + alcohol 104 % of control | dose: 240.0 mg/kg/injection, schedule: Q01DX005 (ip), vehicle: saline + Tween-80 + alcohol 104 % of control

CCOC(=O)C1=C(C(=O)c2ccc(OC)cc2)C(c2c(Cl)cccc2Cl)C(C(=O)c2ccc(OC)cc2)=C(C(=O)OCC)N1
inactive: dose: 30.0 mg/kg/injection, schedule: Q01DX005 (ip), vehicle: saline with Tween-80 86 % of control | [1] 102 % of control and 93 % of control | [2] 94 % of control | [3] 93 % of control

CCOC1OCCCC1(C)C (centres undefined)
inactive: [1] 100 % of control | [2] 105 % of control | [3] 112 % of control

O=C1OC(=O)C23Cc4ccccc4CC12CC1Cc2ccccc2CC1C3 (centres undefined)
inactive: dose: 50.0 mg/kg/injection, schedule: Q01DX009 (ip), vehicle: Klucel (hydroxypropylcellulose) (HPC) 100 % of control | dose: 100.0 mg/kg/injection, schedule: Q01DX009 (ip), vehicle: Klucel (hydroxypropylcellulose) (HPC) 88 % of control | dose: 200.0 mg/kg/injection, schedule: Q01DX009 (ip), vehicle: Klucel (hydroxypropylcellulose) (HPC) 94 % of control

COC(=O)C(OC)(OC)C(O)c1ccccc1 (centres undefined)
inactive: dose: 60.0 mg/kg/injection, schedule: Q01DX005 (ip), vehicle: saline 100 % of control | dose: 120.0 mg/kg/injection, schedule: Q01DX005 (ip), vehicle: saline 106 % of control | dose: 240.0 mg/kg/injection, schedule: Q01DX005 (ip), vehicle: saline 113 % of control

CCc1[nH]c2ccccc2c1C(=O)c1cccnc1
inactive: dose: 50.0 mg/kg/injection, schedule: Q04DX003 (ip), vehicle: Klucel (hydroxypropylcellulose) (HPC) 101 % of control | dose: 100.0 mg/kg/injection, schedule: Q04DX003 (ip), vehicle: Klucel (hydroxypropylcellulose) (HPC) 97 % of control | dose: 200.0 mg/kg/injection, schedule: Q04DX003 (ip), vehicle: Klucel (hydroxypropylcellulose) (HPC) 100 % of control

O=c1cc(O)c1=O
inactive: dose: 0.78 mg/kg/injection, schedule: Q01DX009 (ip), vehicle: saline 96 % of control | dose: 1.56 mg/kg/injection, schedule: Q01DX009 (ip), vehicle: saline 109 % of control | dose: 3.13 mg/kg/injection, schedule: Q01DX009 (ip), vehicle: saline 91 % of control | dose: 6.25 mg/kg/injection, schedule: Q01DX009 (ip), vehicle: saline 98 % of control

CC(=O)O[C@H]1CC[C@@]2(C)C(=CC[C@@H]3[C@@H]2CC[C@]2(C)C(=NCCCN4CCOCC4)CC[C@@H]32)C1
inactive: [4] 105 % of control | [5] 101 % of control | [6] 99 % of control

COc1ccc(C(c2cc3c(cc2O)OCO3)N2CCCCC2)c(OC)c1 (centres undefined)
inactive: dose: 60.0 mg/kg/injection, schedule: Q01DX005 (ip), vehicle: Klucel (hydroxypropylcellulose) (HPC) 108 % of control | dose: 120.0 mg/kg/injection, schedule: Q01DX005 (ip), vehicle: Klucel (hydroxypropylcellulose) (HPC) 110 % of control | dose: 240.0 mg/kg/injection, schedule: Q01DX005 (ip), vehicle: Klucel (hydroxypropylcellulose) (HPC) 117 % of control

CCN(CC)CCOC(=O)C(OCCCc1ccccc1)(c1ccccc1)c1ccccc1
inactive: [4] 111 % of control | [5] 112 % of control

COc1cc(Cc2nnc(N)nc2N)cc(OC)c1OC
inactive: [7] 100 % of control | dose: 200.0 mg/kg/injection, schedule: Q01DX001 (ip), vehicle: Klucel (hydroxypropylcellulose) (HPC) 114 % of control | dose: 400.0 mg/kg/injection, schedule: Q01DX001 (ip), vehicle: Klucel (hydroxypropylcellulose) (HPC) 96 % of control

O=C(Cn1c(=O)sc2ccc(Cl)cc21)N1CCN(CCO)CC1
inactive: dose: 25.0 mg/kg/injection, schedule: Q01DX009 (ip), vehicle: saline 105 % of control | dose: 50.0 mg/kg/injection, schedule: Q01DX009 (ip), vehicle: saline 105 % of control | dose: 100.0 mg/kg/injection, schedule: Q01DX009 (ip), vehicle: saline 99 % of control | dose: 200.0 mg/kg/injection, schedule: Q01DX009 (ip), vehicle: saline 94 % of control

C1CC[N+](=c2nc(N3CCOCC3)ss2)C1
inactive: dose: 50.0 mg/kg/injection, schedule: Q04DX002 (ip), vehicle: saline with Tween-80 100 % of control | dose: 100.0 mg/kg/injection, schedule: Q04DX002 (ip), vehicle: saline with Tween-80 99 % of control | dose: 200.0 mg/kg/injection, schedule: Q04DX002 (ip), vehicle: saline with Tween-80 99 % of control

CCN(CC)CCOCc1ccc2c(c1)OCO2
inactive: dose: 25.0 mg/kg/injection, schedule: Q01DX005 (ip), vehicle: saline with Tween-80 113 % of control | [8] 113 % of control | [9] 111 % of control

COc1ccc(CCN2C(=O)NC(=O)C2=O)cc1OC
inactive: [1] 97 % of control | [2] 101 % of control | [3] 97 % of control

O=C(OCC(OC(=O)c1ccccc1)C(OC(=O)c1ccccc1)C(OC(=O)c1ccccc1)c1nn[nH]n1)c1ccccc1 (centres undefined)
inactive: [8] 100 % of control | [9] 100 % of control | dose: 200.0 mg/kg/injection, schedule: Q01DX005 (ip), vehicle: saline with Tween-80 95 % of control

Nc1ccn(C2OC(C(OC3OC(CO)C(O)C(N)C3O)C(O)C(O)C(O)C(O)CO)C(N)C(O)C2O)c(=O)n1 (centres undefined)
inactive: dose: 0.1 mg/kg/injection, schedule: Q01DX005 (ip), vehicle: saline 100 % of control | dose: 0.2 mg/kg/injection, schedule: Q01DX005 (ip), vehicle: saline 102 % of control | dose: 0.4 mg/kg/injection, schedule: Q01DX005 (ip), vehicle: saline 107 % of control | dose: 0.8 mg/kg/injection, schedule: Q01DX005 (ip), vehicle: saline 102 % of control

C1=NC(C2CC2)c2ccc3c([nH]c4ccccc43)c2N1 (centres undefined)
inactive: [10] 101 % of control | [11] 90 % of control

CC(O)C(NC(=O)OCc1ccccc1)C(=O)NCC(N)=O (centres undefined) (Cbz-[ξT]-Gly-NH2)
inactive: [4] 101 % of control | [5] 115 % of control | [6] 101 % of control

COc1cccc(Cc2ccncc2)c1OC
inactive: dose: 12.5 mg/kg/injection, schedule: Q01DX009 (ip), vehicle: water 101 % of control | dose: 25.0 mg/kg/injection, schedule: Q01DX009 (ip), vehicle: water 100 % of control | dose: 50.0 mg/kg/injection, schedule: Q01DX009 (ip), vehicle: water 100 % of control | dose: 100.0 mg/kg/injection, schedule: Q01DX009 (ip), vehicle: water 102 % of control | dose: 200.0 mg/kg/injection, schedule: Q01DX009 (ip), vehicle: water 103 % of control

CC(C)(C)Nc1nc2ccccc2c(=O)o1
inactive: dose: 100.0 mg/kg/injection, schedule: Q01DX001 (ip), vehicle: saline with Tween-80 101 % of control | dose: 200.0 mg/kg/injection, schedule: Q01DX001 (ip), vehicle: saline with Tween-80 106 % of control | dose: 400.0 mg/kg/injection, schedule: Q01DX001 (ip), vehicle: saline with Tween-80 116 % of control

c1ccc2c(c1)Nc1nccnc1[Se]2
inactive: [10] 100 % of control | [11] 101 % of control | dose: 400.0 mg/kg/injection, schedule: Q04DX002 (ip), vehicle: Klucel (hydroxypropylcellulose) (HPC) 101 % of control

CCCCCCCCCCC(CCCCCC)C(=O)O (centres undefined)
inactive: dose: 75.0 mg/kg/injection, schedule: Q01DX001 (ip), vehicle: saline with Tween-80 104 % of control | dose: 150.0 mg/kg/injection, schedule: Q01DX001 (ip), vehicle: saline with Tween-80 104 % of control | dose: 300.0 mg/kg/injection, schedule: Q01DX001 (ip), vehicle: saline with Tween-80 100 % of control

CCOC(=O)CCC(CNC(=O)c1ccccc1)NC(=O)c1ccccc1 (centres undefined)
inactive: [1] 98 % of control | [2] 90 % of control | [3] 88 % of control

C(=N/Nc1ccccc1)/C(=N\Nc1ccccc1)C1CCN(Cc2ccccc2)CC1
inactive: dose: 25.0 mg/kg/injection, schedule: Q01DX001 (ip), vehicle: Klucel (hydroxypropylcellulose) (HPC) 103 % of control | dose: 50.0 mg/kg/injection, schedule: Q01DX001 (ip), vehicle: Klucel (hydroxypropylcellulose) (HPC) 107 % of control | [7] 100 % of control
